From ChEMBL document CHEMBL4483862, “Open-source discovery of chemical leads for next-generation chemoprotective antimalarials” (2018)

System: Plasmodium berghei
Test: Luciferase/luciferin-expressing antifolate-resistant parasites were used to infect a culture of HepG2 cells that were pre-incubated with compounds. Infected hepatocytes emit light due to the luciferase reaction. Assay results are presented as the percent inhibition of light emission compared to control. […]
Assay type: functional
Settings: sporozoite; for IC90: read-out: LUCIFERASE INFECTION ASSAY - IC90

Structure (SMILES) | IC90 [µM] | also measured
COc1ccc(-c2nc3c(c(=O)[nH]c(=O)n3Cc3ccccc3)n2Cc2ccccc2)cc1 | > 10 | IC50 (HEPG2TOX_HILL_SLOPE 7.19, HEPG2TOX_R_SQUARED 0.823, PBLUC_HILL_SLOPE 10.3, PBLUC_R_SQUARED 0.181, read-out: LUCIFERASE INFECTION ASSAY - IC50): 8.99 µM
CC(C)c1ccc(NC2=NN=C(c3cccs3)CS2)cc1 | > 10 | IC50 (HEPG2TOX_HILL_SLOPE 7.09, HEPG2TOX_R_SQUARED 0.364, read-out: LUCIFERASE INFECTION ASSAY - IC50): > 10 µM
COc1cc(-c2cnc3cnc(-c4cnn(C)c4)cn23)ccc1O | 3.64 | IC50 (HEPG2TOX_HILL_SLOPE 7.18, HEPG2TOX_R_SQUARED 0.736, PBLUC_HILL_SLOPE 4.69, PBLUC_R_SQUARED 0.709, read-out: LUCIFERASE INFECTION ASSAY - IC50): 2.28 µM
CC(=O)c1cccc(-c2cnc3cnc(-c4cnn(C)c4)cn23)c1 | > 10.4 | IC50 (HEPG2TOX_HILL_SLOPE 7.11, HEPG2TOX_R_SQUARED 0.363, PBLUC_HILL_SLOPE 4.07, PBLUC_R_SQUARED 0.503, read-out: LUCIFERASE INFECTION ASSAY - IC50): 9.68 µM
Cc1ccc2c(c1)/C(=N/Nc1nc3ccccc3s1)C(=O)N2 | 4.93 | IC50 (HEPG2TOX_HILL_SLOPE 7.15, HEPG2TOX_R_SQUARED 0.815, PBLUC_HILL_SLOPE 8.39, PBLUC_R_SQUARED 0.507, read-out: LUCIFERASE INFECTION ASSAY - IC50): 3.79 µM
O=C1C=C/C(=N\Nc2ccc(F)cc2)c2cccnc21 | > 10 | IC50 (HEPG2TOX_HILL_SLOPE 7.02, HEPG2TOX_R_SQUARED 0.243, read-out: LUCIFERASE INFECTION ASSAY - IC50): > 10 µM
CCOC(=O)/C=C/C(=O)OCC(=O)c1ccc(C2CCCCC2)cc1 | > 10 | IC50 (HEPG2TOX_HILL_SLOPE 7.18, HEPG2TOX_R_SQUARED 0.791, read-out: LUCIFERASE INFECTION ASSAY - IC50): > 10 µM
CN(C)c1cccc(-c2cnc3cnc(-c4cccc(NS(C)(=O)=O)c4)cn23)c1 | > 8.1 | IC50 (HEPG2TOX_HILL_SLOPE 7.18, HEPG2TOX_R_SQUARED 0.638, PBLUC_HILL_SLOPE 3.24, PBLUC_R_SQUARED 0.204, read-out: LUCIFERASE INFECTION ASSAY - IC50): 4.82 µM
Cc1cc(C)cc(Nc2ncnc3ccsc23)c1 | > 10 | IC50 (HEPG2TOX_HILL_SLOPE 6.98, HEPG2TOX_R_SQUARED 0.366, PBLUC_HILL_SLOPE 11.4, PBLUC_R_SQUARED 0.0607, read-out: LUCIFERASE INFECTION ASSAY - IC50): > 10 µM
Cc1ccc(C(=O)c2sc(Nc3ccc(F)cc3)c(-c3nnc(N4CCOCC4)n3-c3ccccc3)c2N)cc1C | > 10 | IC50 (HEPG2TOX_HILL_SLOPE 7.05, HEPG2TOX_R_SQUARED 0.741, PBLUC_HILL_SLOPE 9.57, PBLUC_R_SQUARED 0.198, read-out: LUCIFERASE INFECTION ASSAY - IC50): 8.84 µM
CCN(CC)Cc1nc(Oc2ccc(C)cc2OC)c2c(C)c(C)sc2n1 | > 10 | IC50 (HEPG2TOX_HILL_SLOPE 7.2, HEPG2TOX_R_SQUARED 0.121, read-out: LUCIFERASE INFECTION ASSAY - IC50): > 10 µM
Cn1cc(CN2CC=C(c3ccccc3)CC2)c2ccccc21 | > 10 | IC50 (HEPG2TOX_HILL_SLOPE 7.11, HEPG2TOX_R_SQUARED 0.283, PBLUC_HILL_SLOPE 12.5, PBLUC_R_SQUARED 0.246, read-out: LUCIFERASE INFECTION ASSAY - IC50): 9.52 µM
COC(=O)c1cnc(Sc2nnc(C(F)(F)F)n2C)c([N+](=O)[O-])c1 | > 9.08 | IC50 (HEPG2TOX_HILL_SLOPE 7.14, HEPG2TOX_R_SQUARED 0.788, read-out: LUCIFERASE INFECTION ASSAY - IC50): > 9.08 µM
Cc1ccccc1NC(=O)Nc1nc(C(N)COCc2ccccc2)cs1 (stereo unspecified) | > 8.63 | IC50 (HEPG2TOX_HILL_SLOPE 7.21, HEPG2TOX_R_SQUARED 0.623, PBLUC_HILL_SLOPE 21.4, PBLUC_R_SQUARED 0.0439, read-out: LUCIFERASE INFECTION ASSAY - IC50): 7.8 µM
CCn1c(-c2ccccc2)c(C(=O)COc2ccc(Cl)c(C)c2)c2ccccc21 | > 10 | IC50 (HEPG2TOX_HILL_SLOPE 7.06, HEPG2TOX_R_SQUARED 0.488, PBLUC_HILL_SLOPE 0.342, PBLUC_R_SQUARED 0.631, read-out: LUCIFERASE INFECTION ASSAY - IC50): 0.357 µM
O=C(c1cccnc1)N1CCc2nc(NCc3cccc(Oc4ccccc4)c3)ncc2C1 | > 7.54 | IC50 (HEPG2TOX_HILL_SLOPE 6.99, HEPG2TOX_R_SQUARED 0.608, read-out: LUCIFERASE INFECTION ASSAY - IC50): > 7.54 µM
CC(=O)c1cccc(-c2cnc3ccc(-c4cccc(OC(F)(F)F)c4)nn23)c1 | > 10 | IC50 (HEPG2TOX_HILL_SLOPE 7.2, HEPG2TOX_R_SQUARED 0.65, PBLUC_HILL_SLOPE 0.974, PBLUC_R_SQUARED 0.617, read-out: LUCIFERASE INFECTION ASSAY - IC50): 1.38 µM

Structure (SMILES) | IC90 [µM] | also measured
CCc1ccc(NC(=O)c2cc(OC)c(OC)c(OC)c2)cc1[N+](=O)[O-] | > 10 | IC50 (HEPG2TOX_HILL_SLOPE 7.15, HEPG2TOX_R_SQUARED 0.493, PBLUC_HILL_SLOPE 1.31, PBLUC_R_SQUARED 0.625, read-out: LUCIFERASE INFECTION ASSAY - IC50): 6.01 µM
COc1ccc(Cn2c(C)nc3c(cnn3-c3ccc(Cl)cc3)c2=O)cc1 | > 8.67 | IC50 (HEPG2TOX_HILL_SLOPE 7.21, HEPG2TOX_R_SQUARED 0.304, PBLUC_HILL_SLOPE 6.35, PBLUC_R_SQUARED 0.427, read-out: LUCIFERASE INFECTION ASSAY - IC50): 7.48 µM
Oc1cccc(-c2cnc3cnc(-c4ccccc4)cn23)c1 | > 11.5 | IC50 (HEPG2TOX_HILL_SLOPE 7.12, HEPG2TOX_R_SQUARED 0.466, PBLUC_HILL_SLOPE 2.24, PBLUC_R_SQUARED 0.572, read-out: LUCIFERASE INFECTION ASSAY - IC50): 7.48 µM
COc1cc(-c2cnc3cnc(-c4cccc(NS(C)(=O)=O)c4)cn23)cc(OC)c1OC | 6.6 | IC50 (HEPG2TOX_HILL_SLOPE 7.03, HEPG2TOX_R_SQUARED 0.532, PBLUC_HILL_SLOPE 3.63, PBLUC_R_SQUARED 0.378, read-out: LUCIFERASE INFECTION ASSAY - IC50): 3.61 µM
CCCc1cc(=O)n2nc(COc3ccccc3)c(-c3ccccc3)c2[nH]1 | 5.37 | IC50 (HEPG2TOX_HILL_SLOPE 7.2, HEPG2TOX_R_SQUARED 0.777, PBLUC_HILL_SLOPE 5.33, PBLUC_R_SQUARED 0.154, read-out: LUCIFERASE INFECTION ASSAY - IC50): 3.56 µM
CS(=O)(=O)Nc1cccc(-c2cn3c(-c4cccc(O)c4)cnc3cn2)c1 | 8.16 | IC50 (HEPG2TOX_HILL_SLOPE 7.05, HEPG2TOX_R_SQUARED 0.671, PBLUC_HILL_SLOPE 23.9, PBLUC_R_SQUARED 0.257, read-out: LUCIFERASE INFECTION ASSAY - IC50): 7.45 µM
Cc1nc(C(=N)NOC(=O)c2c(-c3c(Cl)cccc3Cl)noc2C)cs1 | 1.24 | IC50 (HEPG2TOX_HILL_SLOPE 7.11, HEPG2TOX_R_SQUARED 0.0768, PBLUC_HILL_SLOPE 8.1, PBLUC_R_SQUARED 0.284, read-out: LUCIFERASE INFECTION ASSAY - IC50): 0.945 µM
N=C(NOC(=O)Nc1cccc(C(F)(F)F)c1)c1ccc(Oc2c(Cl)cncc2Cl)cc1 | > 6.8 | IC50 (HEPG2TOX_HILL_SLOPE 7.08, HEPG2TOX_R_SQUARED 0.63, PBLUC_HILL_SLOPE 1.44, PBLUC_R_SQUARED 0.448, read-out: LUCIFERASE INFECTION ASSAY - IC50): 4.93 µM
Cn1cc(Br)c(-c2cccc(NC(=O)Nc3ccc(Cl)cc3)c2)n1 | > 8.13 | IC50 (HEPG2TOX_HILL_SLOPE 7.05, HEPG2TOX_R_SQUARED 0.913, PBLUC_HILL_SLOPE 7.26, PBLUC_R_SQUARED 0.779, read-out: LUCIFERASE INFECTION ASSAY - IC50): > 8.13 µM
CN(C)c1ccccc1-c1cn2c(-c3ccc4ncccc4c3)cnc2cn1 | > 9.03 | IC50 (HEPG2TOX_HILL_SLOPE 7.2, HEPG2TOX_R_SQUARED 0.832, read-out: LUCIFERASE INFECTION ASSAY - IC50): > 9.03 µM
CC(=O)NCc1ccc(-c2csc(NC(=O)c3cc4cnn(C(C)C)c4nc3C)n2)s1 | > 10 | IC50 (HEPG2TOX_HILL_SLOPE 7.15, HEPG2TOX_R_SQUARED 0.462, PBLUC_HILL_SLOPE 31.4, PBLUC_R_SQUARED 0.13, read-out: LUCIFERASE INFECTION ASSAY - IC50): 9.38 µM
COc1ccc(-c2cnc3ccc(Cc4ccc(F)cc4)nn23)cc1OC | 6.11 | IC50 (HEPG2TOX_HILL_SLOPE 7.18, HEPG2TOX_R_SQUARED 0.189, PBLUC_HILL_SLOPE 3.8, PBLUC_R_SQUARED 0.0747, read-out: LUCIFERASE INFECTION ASSAY - IC50): 3.43 µM
Cc1[nH]nc2ccnc(-c3cccc(Cl)c3)c12 | > 10 | IC50 (HEPG2TOX_HILL_SLOPE 7.21, HEPG2TOX_R_SQUARED 0.311, read-out: LUCIFERASE INFECTION ASSAY - IC50): > 10 µM
NC(=O)c1cc(NC(=O)c2cccs2)ccc1N1CCCCC1 | 4.83 | IC50 (HEPG2TOX_HILL_SLOPE 7.03, HEPG2TOX_R_SQUARED 0.757, PBLUC_HILL_SLOPE 7.92, PBLUC_R_SQUARED 0.39, read-out: LUCIFERASE INFECTION ASSAY - IC50): 3.66 µM
O=C(Nc1ccc(SC(F)(F)F)cc1)N1CCN(c2nc(-c3ccccc3)ns2)CC1 | > 7.09 | IC50 (HEPG2TOX_HILL_SLOPE 7.08, HEPG2TOX_R_SQUARED 0.48, PBLUC_HILL_SLOPE 1.8, PBLUC_R_SQUARED 0.469, read-out: LUCIFERASE INFECTION ASSAY - IC50): 3.31 µM
O=C1/C(=C/c2ccc(F)cc2)CCC/C1=C\c1ccc(F)cc1 | > 10.6 | IC50 (HEPG2TOX_HILL_SLOPE 7.08, HEPG2TOX_R_SQUARED 0.955, read-out: LUCIFERASE INFECTION ASSAY - IC50): > 10.6 µM
